Measured values from ChEMBL document CHEMBL5046279, “Discovery of a Partial Glucokinase Activator Clinical Candidate: Diethyl ((3-(3-((5-(Azetidine-1-carbonyl)pyrazin-2-yl)oxy)-5-isopropoxybenzamido)-1H-pyrazol-1-yl)methyl)phosphonate (BMS-820132)” (J Med Chem, 2022).
Calls of active or inactive are those of the source.

How the values were obtained:
Assay type in all cases: functional, organism-based
[1] = system: Mus musculus; experiment: Anti-hyperglycemic activity in C57BL/6J DIO mouse assessed as reduction in plasma glucose level at 0.3 umol/kg at 120 mins post dose by OGTT; conditions: dose 0.3 µM/Kg
[2] = species on record: Mus musculus; experiment: Anti-hyperglycemic activity in C57BL/6J DIO mouse assessed as reduction in plasma glucose level incubated for 1 hr by OGTT; conditions: dose 1-10 µM/Kg
[3] = system: Mus musculus; experiment: Anti-hyperglycemic activity in C57BL/6J DIO mouse assessed as reduction in plasma glucose level at 3 to 30 umol/kg measured on day 1 by OGTT; conditions: dose 3-30 µM/Kg

Measured: Activity

CCOP(=O)(Cn1ccc(NC(=O)c2cc(Oc3cnc(C(=O)N4CCC4)cn3)cc(OC(C)C)c2)n1)OCC
active: [1] | [2] Dose-Dependent Effect | [3]
